Assay results taken from PubChem BioAssay AID2060887 (Molecular Pharmacology Branch, DTP, NCI, 2025).

Tested on: 782815-120-R-J1-PDC complex spheroid viability
Assay: Anticancer human tumor 782815-120-R-J1-PDC patient-derived colon adenocarcinoma cell line growth inhibition [RAS]
Conditions: for IC50: curve of first compound; for viability, T/C: stronger effect = lower value
Method in brief: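 Multi-cell-type spheroids: tumor cells plus HUVEC endothelial cells and mesenchymal stem cells. RAS-pathway inhibitors were combined with targeted agents, each dosed in half-log steps down from clinical Cmax, or from 10 microM when Cmax was unknown.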

[1] = second compound 0.00316 µM, first compound 0.0316 µM
[2] = second compound 0.00316 µM, first compound 0.1 µM
[3] = second compound 0.00316 µM, first compound 0.316 µM
[4] = second compound 0.00316 µM, first compound 1 µM
[5] = second compound 0.00316 µM, first compound 3.16 µM
[6] = second compound 0.00316 µM, first compound 10 µM
[7] = second compound 0.01 µM, first compound 0.0316 µM
[8] = second compound 0.01 µM, first compound 0.1 µM
[9] = second compound 0.01 µM, first compound 0.316 µM
[10] = second compound 0.01 µM, first compound 1 µM
[11] = second compound 0.01 µM, first compound 3.16 µM
[12] = second compound 0.01 µM, first compound 10 µM
[13] = second compound 0.0316 µM, first compound 0.0316 µM
[14] = second compound 0.0316 µM, first compound 0.1 µM
[15] = second compound 0.0316 µM, first compound 0.316 µM
[16] = second compound 0.0316 µM, first compound 1 µM
[17] = second compound 0.0316 µM, first compound 3.16 µM
[18] = second compound 0.0316 µM, first compound 10 µM
[19] = second compound 0.1 µM, first compound 0.0316 µM
[20] = second compound 0.1 µM, first compound 0.1 µM
[21] = second compound 0.1 µM, first compound 0.316 µM
[22] = second compound 0.1 µM, first compound 1 µM
[23] = second compound 0.1 µM, first compound 3.16 µM
[24] = second compound 0.1 µM, first compound 10 µM
[25] = second compound 0.316 µM, first compound 0.0316 µM
[26] = second compound 0.316 µM, first compound 0.1 µM
[27] = second compound 0.316 µM, first compound 0.316 µM
[28] = second compound 0.316 µM, first compound 1 µM
[29] = second compound 0.316 µM, first compound 3.16 µM
[30] = second compound 0.316 µM, first compound 10 µM
[31] = second compound 1 µM, first compound 0.0316 µM
[32] = second compound 1 µM, first compound 0.1 µM
[33] = second compound 1 µM, first compound 0.316 µM
[34] = second compound 1 µM, first compound 1 µM
[35] = second compound 1 µM, first compound 3.16 µM
[36] = second compound 1 µM, first compound 10 µM
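Note: spheroids exposed to compounds for 7 days before reading.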
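Throughout, for viability, T/C: 100% = DMSO vehicle control viability.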

Compound: CC1(O)CCCC1n1c(=O)c(C(F)F)cc2cnc(NC3CCN(S(C)(=O)=O)CC3)nc21 (stereo unspecified) + C=CC(=O)N1CCN(c2nc(OCC3CCCN3C)nc3c(F)c(-c4nc(N)cc(C)c4C(F)(F)F)c(Cl)cc23)C(C)C1
- IC50 (second compound 0.00316 µM): 3.64 µM
- IC50 (second compound 0.01 µM): 2.36 µM
- IC50 (second compound 0.0316 µM): 3.38 µM
- IC50 (second compound 0.1 µM): 3.61 µM
- IC50 (second compound 0.316 µM): 3.45 µM
- IC50 (second compound 1 µM): 0.786 µM
- viability, T/C [1]: 61.5%
- viability, T/C [2]: 53%
- viability, T/C [3]: 54.5%
- viability, T/C [4]: 57.6%
- viability, T/C [5]: 53.8%
- viability, T/C [6]: 22%
- viability, T/C [7]: 72.5%
- viability, T/C [8]: 52.3%
- viability, T/C [9]: 53.3%
- viability, T/C [10]: 51.8%
- viability, T/C [11]: 52.1%
- viability, T/C [12]: 19%
- viability, T/C [13]: 58.7%
- viability, T/C [14]: 56.4%
- viability, T/C [15]: 49.2%
- viability, T/C [16]: 55.1%
- viability, T/C [17]: 51.8%
- viability, T/C [18]: 22.1%
- viability, T/C [19]: 65.4%
- viability, T/C [20]: 50.7%
- viability, T/C [21]: 51.3%
- viability, T/C [22]: 52.3%
- viability, T/C [23]: 54.2%
- viability, T/C [24]: 18.6%
- viability, T/C [25]: 56.4%
- viability, T/C [26]: 52.8%
- viability, T/C [27]: 48.9%
- viability, T/C [28]: 50.9%
- viability, T/C [29]: 53.4%
- viability, T/C [30]: 19.8%
- viability, T/C [31]: 61%
- viability, T/C [32]: 55.7%
- viability, T/C [33]: 47.5%
- viability, T/C [34]: 46.7%
- viability, T/C [35]: 44.9%
- viability, T/C [36]: 18.3%

Compound: CCN1CCN(Cc2ccc(Nc3ncc(F)c(-c4cc(F)c5nc(C)n(C(C)C)c5c4)n3)nc2)CC1 + C=CC(=O)N1CCN(c2nc(OCC3CCCN3C)nc3c(F)c(-c4nc(N)cc(C)c4C(F)(F)F)c(Cl)cc23)C(C)C1
- IC50 (second compound 0.00316 µM): > 1 µM
- IC50 (second compound 0.01 µM): > 1 µM
- IC50 (second compound 0.0316 µM): > 1 µM
- IC50 (second compound 0.1 µM): > 1 µM
- IC50 (second compound 0.316 µM): > 1 µM
- IC50 (second compound 1 µM): > 1 µM
- viability, T/C (second compound 0.00316 µM, first compound 0.00316 µM): 95.3%
- viability, T/C (second compound 0.00316 µM, first compound 0.01 µM): 98.8%
- viability, T/C [1]: 99.3%
- viability, T/C [2]: 101%
- viability, T/C [3]: 105%
- viability, T/C [4]: 128%
- viability, T/C (second compound 0.01 µM, first compound 0.00316 µM): 98.9%
- viability, T/C (second compound 0.01 µM, first compound 0.01 µM): 97.2%
- viability, T/C [7]: 95.8%
- viability, T/C [8]: 98.2%
- viability, T/C [9]: 104%
- viability, T/C [10]: 118%
- viability, T/C (second compound 0.0316 µM, first compound 0.00316 µM): 102%
- viability, T/C (second compound 0.0316 µM, first compound 0.01 µM): 105%
- viability, T/C [13]: 99.5%
- viability, T/C [14]: 103%
- viability, T/C [15]: 108%
- viability, T/C [16]: 118%
- viability, T/C (second compound 0.1 µM, first compound 0.00316 µM): 93.4%
- viability, T/C (second compound 0.1 µM, first compound 0.01 µM): 96.1%
- viability, T/C [19]: 106%
- viability, T/C [20]: 103%
- viability, T/C [21]: 108%
- viability, T/C [22]: 116%
- viability, T/C (second compound 0.316 µM, first compound 0.00316 µM): 96.5%
- viability, T/C (second compound 0.316 µM, first compound 0.01 µM): 96.5%
- viability, T/C [25]: 102%
- viability, T/C [26]: 99.3%
- viability, T/C [27]: 111%
- viability, T/C [28]: 117%
- viability, T/C (second compound 1 µM, first compound 0.00316 µM): 92%
- viability, T/C (second compound 1 µM, first compound 0.01 µM): 90.8%
- viability, T/C [31]: 104%
- viability, T/C [32]: 96.1%
- viability, T/C [33]: 108%
- viability, T/C [34]: 123%

Compound: C[C@@H](NC(=O)c1ncnc(N)c1Cl)c1ncc(C(=O)Nc2cc(C(F)(F)F)c(Cl)cn2)s1 + C=CC(=O)N1CCN(c2nc(OCC3CCCN3C)nc3c(F)c(-c4nc(N)cc(C)c4C(F)(F)F)c(Cl)cc23)C(C)C1
- IC50 (second compound 0.00316 µM): > 10 µM
- IC50 (second compound 0.01 µM): > 10 µM
- IC50 (second compound 0.0316 µM): > 10 µM
- IC50 (second compound 0.1 µM): > 10 µM
- IC50 (second compound 0.316 µM): > 10 µM
- IC50 (second compound 1 µM): > 10 µM
- viability, T/C [1]: 100%
- viability, T/C [2]: 106%
- viability, T/C [3]: 97%
- viability, T/C [4]: 86%
- viability, T/C [5]: 83.8%
- viability, T/C [6]: 72.1%
- viability, T/C [7]: 104%
- viability, T/C [8]: 105%
- viability, T/C [9]: 104%
- viability, T/C [10]: 88.6%
- viability, T/C [11]: 80.8%
- viability, T/C [12]: 71.8%
- viability, T/C [13]: 116%
- viability, T/C [14]: 107%
- viability, T/C [15]: 96.6%
- viability, T/C [16]: 90%
- viability, T/C [17]: 90.2%
- viability, T/C [18]: 71.2%
- viability, T/C [19]: 111%
- viability, T/C [20]: 101%
- viability, T/C [21]: 96.8%
- viability, T/C [22]: 99.8%
- viability, T/C [23]: 89.9%
- viability, T/C [24]: 66.3%
- viability, T/C [25]: 108%
- viability, T/C [26]: 113%
- viability, T/C [27]: 97.3%
- viability, T/C [28]: 101%
- viability, T/C [29]: 85%
- viability, T/C [30]: 74.5%
- viability, T/C [31]: 114%
- viability, T/C [32]: 108%
- viability, T/C [33]: 98.5%
- viability, T/C [34]: 110%
- viability, T/C [35]: 92.6%
- viability, T/C [36]: 65.5%
